Data taken from the NIST ThermoML archive (doi:10.1021/je200213h).
Numbers after ± are expanded uncertainties.

How the values were obtained:
[1] = xn = mol fraction of the nth substance listed; conditions: 101 kPa, Liquid, Capillary tube (Ostwald / Ubbelohde) method
[2] = 101.33 kPa, Liquid, Capillary tube (Ostwald / Ubbelohde) method

CCC(C)(C)C [2,2-dimethylbutane] + CCCCCl
kinematic viscosity [m2/s], [1]
Conditions	283.15 K	298.15 K	313.15 K
x1 = 0.0524	5.594e-07 ± 4.7e-09	4.802e-07 ± 4.1e-09	4.231e-07 ± 3.7e-09
x1 = 0.101	5.603e-07 ± 4.7e-09	4.809e-07 ± 4.1e-09	4.239e-07 ± 3.7e-09
x1 = 0.1995	5.627e-07 ± 4.7e-09	4.822e-07 ± 4.2e-09	4.253e-07 ± 3.7e-09
x1 = 0.3081	5.663e-07 ± 4.8e-09	4.846e-07 ± 4.2e-09	4.275e-07 ± 3.8e-09
x1 = 0.3985	5.705e-07 ± 4.8e-09	4.867e-07 ± 4.2e-09	4.294e-07 ± 3.8e-09
x1 = 0.499	5.76e-07 ± 4.8e-09	4.898e-07 ± 4.2e-09	4.322e-07 ± 3.8e-09
x1 = 0.5984	5.822e-07 ± 4.9e-09	4.943e-07 ± 4.2e-09	4.362e-07 ± 3.8e-09
x1 = 0.7015	5.899e-07 ± 4.9e-09	5e-07 ± 4.3e-09	4.409e-07 ± 3.9e-09
x1 = 0.7986	5.992e-07 ± 5e-09	5.063e-07 ± 4.3e-09	4.463e-07 ± 3.9e-09
x1 = 0.9002	6.098e-07 ± 5.1e-09	5.133e-07 ± 4.4e-09	4.52e-07 ± 3.9e-09
x1 = 0.9487	6.16e-07 ± 5.1e-09	5.17e-07 ± 4.4e-09	4.55e-07 ± 4e-09

CC(C)(C)Cl [2-chloro-2-methylpropane]
[2]
Conditions	kinematic viscosity [m2/s]
283.15 K	6.992e-07 ± 5.7e-09
298.15 K	5.696e-07 ± 4.8e-09
313.15 K	4.77e-07 ± 4.1e-09

CC(C)(C)Cl [2-chloro-2-methylpropane] + CCC(C)CC
kinematic viscosity [m2/s], [1]
Conditions	283.15 K	298.15 K	313.15 K
x2 = 0.0496	6.755e-07 ± 5.6e-09	5.548e-07 ± 4.7e-09	4.681e-07 ± 4.1e-09
x2 = 0.0995	6.538e-07 ± 5.4e-09	5.4e-07 ± 4.6e-09	4.576e-07 ± 4e-09
x2 = 0.2046	6.148e-07 ± 5.1e-09	5.14e-07 ± 4.4e-09	4.4e-07 ± 3.8e-09
x2 = 0.3023	5.848e-07 ± 4.9e-09	4.937e-07 ± 4.2e-09	4.256e-07 ± 3.7e-09
x2 = 0.405	5.592e-07 ± 4.7e-09	4.767e-07 ± 4.1e-09	4.14e-07 ± 3.7e-09
x2 = 0.5064	5.394e-07 ± 4.6e-09	4.637e-07 ± 4e-09	4.051e-07 ± 3.6e-09
x2 = 0.6033	5.235e-07 ± 4.5e-09	4.536e-07 ± 3.9e-09	3.984e-07 ± 3.5e-09
x2 = 0.7038	5.114e-07 ± 4.4e-09	4.462e-07 ± 3.9e-09	3.933e-07 ± 3.5e-09
x2 = 0.8012	5.026e-07 ± 4.3e-09	4.41e-07 ± 3.9e-09	3.9e-07 ± 3.5e-09
x2 = 0.9018	4.964e-07 ± 4.3e-09	4.377e-07 ± 3.8e-09	3.881e-07 ± 3.5e-09
x2 = 0.9514	4.946e-07 ± 4.2e-09	4.372e-07 ± 3.8e-09	3.88e-07 ± 3.5e-09

CC(C)(C)Cl [2-chloro-2-methylpropane] + CCCCCC
kinematic viscosity [m2/s], [1]
Conditions	283.15 K	298.15 K	313.15 K
x2 = 0.0495	6.722e-07 ± 5.5e-09	5.527e-07 ± 4.7e-09	4.671e-07 ± 4e-09
x2 = 0.0989	6.489e-07 ± 5.4e-09	5.369e-07 ± 4.6e-09	4.565e-07 ± 4e-09
x2 = 0.2019	6.091e-07 ± 5.1e-09	5.105e-07 ± 4.4e-09	4.391e-07 ± 3.8e-09
x2 = 0.2987	5.81e-07 ± 4.9e-09	4.916e-07 ± 4.2e-09	4.266e-07 ± 3.7e-09
x2 = 0.4043	5.575e-07 ± 4.7e-09	4.756e-07 ± 4.1e-09	4.162e-07 ± 3.7e-09
x2 = 0.4985	5.415e-07 ± 4.6e-09	4.651e-07 ± 4e-09	4.095e-07 ± 3.6e-09
x2 = 0.6024	5.287e-07 ± 4.5e-09	4.571e-07 ± 4e-09	4.048e-07 ± 3.6e-09
x2 = 0.7017	5.203e-07 ± 4.4e-09	4.516e-07 ± 3.9e-09	4.019e-07 ± 3.6e-09
x2 = 0.7996	5.151e-07 ± 4.4e-09	4.489e-07 ± 3.9e-09	4.009e-07 ± 3.6e-09
x2 = 0.9025	5.123e-07 ± 4.4e-09	4.478e-07 ± 3.9e-09	4.016e-07 ± 3.6e-09
x2 = 0.9498	5.119e-07 ± 4.4e-09	4.483e-07 ± 3.9e-09	4.023e-07 ± 3.6e-09

CC(C)(C)Cl [2-chloro-2-methylpropane] + CCCCCCC
kinematic viscosity [m2/s], [1]
Conditions	283.15 K	298.15 K	313.15 K
x2 = 0.0519	6.84e-07 ± 5.6e-09	5.603e-07 ± 4.7e-09	4.741e-07 ± 4.1e-09
x2 = 0.1021	6.722e-07 ± 5.5e-09	5.532e-07 ± 4.7e-09	4.711e-07 ± 4.1e-09
x2 = 0.2015	6.546e-07 ± 5.4e-09	5.438e-07 ± 4.6e-09	4.675e-07 ± 4e-09
x2 = 0.3006	6.44e-07 ± 5.3e-09	5.389e-07 ± 4.6e-09	4.666e-07 ± 4e-09
x2 = 0.3997	6.391e-07 ± 5.3e-09	5.38e-07 ± 4.6e-09	4.679e-07 ± 4.1e-09
x2 = 0.5027	6.376e-07 ± 5.3e-09	5.391e-07 ± 4.6e-09	4.699e-07 ± 4.1e-09
x2 = 0.6011	6.397e-07 ± 5.3e-09	5.434e-07 ± 4.6e-09	4.735e-07 ± 4.1e-09
x2 = 0.7014	6.441e-07 ± 5.3e-09	5.489e-07 ± 4.6e-09	4.78e-07 ± 4.1e-09
x2 = 0.8007	6.504e-07 ± 5.4e-09	5.572e-07 ± 4.7e-09	4.832e-07 ± 4.2e-09
x2 = 0.8966	6.591e-07 ± 5.4e-09	5.652e-07 ± 4.8e-09	4.894e-07 ± 4.2e-09
x2 = 0.9518	6.651e-07 ± 5.5e-09	5.706e-07 ± 4.8e-09	4.944e-07 ± 4.2e-09

CCC(C)Cl (stereo not drawn) [2-chlorobutane]
[2]
Conditions	kinematic viscosity [m2/s]
283.15 K	5.237e-07 ± 4.5e-09
298.15 K	4.603e-07 ± 4e-09
313.15 K	4.049e-07 ± 3.6e-09
